Earlier results in US20110086355A1, “BRCA1 mRNA EXPRESSION LEVELS PREDICT SURVIVAL IN BREAST CANCER PATIENTS TREATED WITH NEOADJUVANT CHEMOTHERAPY” (PANGAEA BIOTECH, S.A., priority 2008, published 2011).

What was measured:
[1] = tested on: HCC1937 breast cancer cell line; settings: wild-type BRCA1 reconstituted vs BRCA1-negative HCC1937
[2] = tested on: SKOV-3 human ovarian cancer cell line
[3] = tested on: breast cancer cell line; settings: BRCA1 mRNA determined by RT-QPCR
[4] = tested on: Mouse models carrying conditional disruption of BRCA1

SMILES	change of sensitivity after decreased BRCA1 mRNA expression [3]	sensitivity of BRCA1-disrupted mouse models [4]	further results
N.N.[Cl][Pt][Cl] [cisplatin]	greater sensitivity	–	increase in resistance [1]: 20 fold; resistance after upregulation of BRCA1 expression [2]: increased cisplatin resistance
COc1cccc2c1C(=O)c1c(O)c3c(c(O)c1C2=O)C[C@@](O)(C(=O)CO)C[C@@H]3O[C@H]1C[C@H](N)[C@H](O)[C@H](C)O1 [doxorubicin]	–	highly sensitive	–
COc1cc([C@@H]2c3cc4c(cc3[C@@H](O[C@@H]3O[C@@H]5CO[C@@H](C)O[C@H]5[C@H](O)[C@H]3O)[C@H]3COC(=O)[C@H]23)OCO4)cc(OC)c1O [etoposide]	greater sensitivity	–	–
CC(=O)O[C@H]1C(=O)[C@@]2(C)[C@H]([C@H](OC(=O)c3ccccc3)[C@]3(O)C[C@H](OC(=O)[C@H](O)[C@@H](NC(=O)c4ccccc4)c4ccccc4)C(C)=C1C3(C)C)[C@]1(OC(C)=O)CO[C@@H]1C[C@@H]2O [paclitaxel]	greater resistance	–	–
CC/C(=C(\c1ccccc1)c1ccc(OCCN(C)C)cc1)c1ccccc1 [tamoxifen]	–	resistant	–
CC[C@]1(O)C[C@H]2CN(CCc3c([nH]c4ccccc34)[C@@](C(=O)OC)(c3cc4c(cc3OC)N(C=O)[C@H]3[C@@](O)(C(=O)OC)[C@H](OC(C)=O)[C@]5(CC)C=CCN6CC[C@]43[C@@H]65)C2)C1 [vincristine]	greater resistance	–	–
